Experimental findings from ChEMBL document CHEMBL4392852, “Synthesis and characterization of hydrogen peroxide activated estrogen receptor beta ligands” (Bioorg Med Chem, 2019) are described below.

The target of data set [1] is T1, Estrogen receptor (Homo sapiens) (UniProt P03372).
T1 sequence (whole entry): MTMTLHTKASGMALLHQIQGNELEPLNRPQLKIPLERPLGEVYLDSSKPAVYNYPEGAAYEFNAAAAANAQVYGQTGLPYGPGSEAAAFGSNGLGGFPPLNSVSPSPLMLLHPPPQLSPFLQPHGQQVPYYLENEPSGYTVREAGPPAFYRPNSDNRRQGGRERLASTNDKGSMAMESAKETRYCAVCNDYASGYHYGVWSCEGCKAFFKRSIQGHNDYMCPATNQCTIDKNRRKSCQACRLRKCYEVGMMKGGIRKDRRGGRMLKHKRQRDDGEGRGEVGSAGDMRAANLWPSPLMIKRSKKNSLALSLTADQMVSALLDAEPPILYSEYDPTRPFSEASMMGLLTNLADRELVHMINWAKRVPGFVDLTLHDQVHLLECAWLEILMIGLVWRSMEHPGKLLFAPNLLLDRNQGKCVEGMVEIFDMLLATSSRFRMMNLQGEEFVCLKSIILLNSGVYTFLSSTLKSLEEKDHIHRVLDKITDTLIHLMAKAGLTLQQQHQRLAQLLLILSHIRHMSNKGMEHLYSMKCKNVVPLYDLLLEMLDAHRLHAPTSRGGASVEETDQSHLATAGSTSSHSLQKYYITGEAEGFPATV
Briefly: Ratio of RBA for DPN to RBA for test compound for displacement of fluormone tracer from full length human recombinant ERalpha relative to estradiol.

Data set [2] addresses T2, Estrogen receptor beta (Homo sapiens, UniProt Q92731). Briefly: Ratio of RBA for DPN to RBA for test compound for displacement of fluormone tracer from full length human recombinant ERbeta relative to estradiol.
Data set [3] is described as follows: Drug metabolism in pH 7.4 PBS in absence of H2O2 at 75 uM incubated at 37 degC for 4 hrs by UV spectroscopy.
Data set [4] is described as follows: Drug metabolism in pH 7.4 PBS assessed as H2O2-mediated formation of DPN at 75 uM at 37 degC incubated for 10 mins by UV spectroscopy.
Data set [5] can be described thus: Drug metabolism in pH 7.4 PBS assessed as second order rate constant for H2O2-mediated formation of DPN at 75 uM at 37 degC incubated for over 4 hrs by UV spectroscopy.
The nature of data set [6]: Retention time of the compound at 150 uM by HPLC analysis. The format is physicochemical.
Data set [7] can be described thus: Drug metabolism in pH 7.4 PBS assessed as formation of DPN at 150 uM at 37 degC incubated for 1 hr in presence of 5 fold excess H2O2 by HPLC analysis.
Data set [8] is described as follows: Drug metabolism in pH 7.4 PBS assessed as formation of DPN at 150 uM at 37 degC incubated for 1 hr in presence of 5 fold excess TBHP by HPLC analysis.
A short description of data set [9]: Drug metabolism in pH 7.4 PBS assessed as formation of DPN at 150 uM at 37 degC incubated for 1 hr in presence of 5 fold excess nitric oxide by HPLC analysis.
The nature of data set [10]: Drug metabolism in pH 7.4 PBS assessed as formation of DPN at 150 uM at 37 degC incubated for 1 hr in presence of 5 fold excess hydroxyl radical by HPLC analysis.
Data set [11] can be described thus: Drug metabolism in pH 7.4 PBS assessed as formation of DPN at 150 uM at 37 degC incubated for 1 hr in presence of 5 fold excess superoxide by HPLC analysis relative to untreated control.
Data set [12] in a line: Drug metabolism in pH 7.4 PBS assessed as formation of DPN at 150 uM at 37 degC incubated for 1 hr in presence of 5 fold excess hypochlorite by HPLC analysis relative to untreated control.
The target in data set [13] is T1, Estrogen receptor (Homo sapiens). Kind of data set: Ratio of RBA for Estrone to RBA for test compound for displacement of fluormone tracer from full length human recombinant ERalpha relative to estradiol.
For data set [14], the target named is T2, Estrogen receptor beta. Kind of data set: Ratio of RBA for Estrone to RBA for test compound for displacement of fluormone tracer from full length human recombinant ERbeta relative to estradiol.
Data set [15] is described as follows: Drug metabolism in pH 7.4 PBS assessed as H2O2-mediated conversion to E1 by measuring second order rate constant incubated at 75 uM at 37 degC for 4 hrs by UV spectroscopy.
Data set [16] can be described thus: Drug metabolism in pH 7.4 PBS assessed as H2O2-mediated conversion to phenol by measuring second order rate constant for disappearance of starting material at 75 uM incubated at 37 degC for 4 hrs by UV spectroscopy.
Data set [17] can be described thus: Drug metabolism in pH 7.4 PBS assessed as H2O2-mediated conversion to E2 incubated at 500 uM at 37 degC for 30 mins by GC-MS analysis.
The nature of data set [18]: Drug metabolism in pH 7.4 PBS assessed as H2O2-mediated conversion to E2 by measuring retention time of product at 500 uM incubated at 37 degC for 30 mins by GC-MS analysis. The format is physicochemical. The note with it: buffer, pH 7.4, 0.5 h.
Data set [19] addresses T1, Estrogen receptor (Homo sapiens). Briefly: Ratio of RBA for estradiol RBA for test compound for displacement of fluormone tracer from full length human recombinant ERalpha relative to estradiol.
Data set [20] deals with T2, Estrogen receptor beta. Briefly: Ratio of RBA for estradiol RBA for test compound for displacement of fluormone tracer from full length human recombinant ERbeta relative to estradiol.
In data set [21] the target is T2, Estrogen receptor beta. Briefly: Activation of human ERbeta assessed as induction of transcriptional activation incubated for 24 hrs by luciferase reporter gene assay.
Data set [22] concerns the target T2, Estrogen receptor beta. Kind of data set: Activation of human ERbeta assessed as induction of transcriptional activation incubated for 24 hrs in presence of 50 uM H2O2 by luciferase reporter gene assay. (A reporter such as luciferase makes a cellular process visible.)
Data set [23] has as its target T2, Estrogen receptor beta. Kind of data set: Activation of human ERbeta assessed as induction of transcriptional activation incubated for 24 hrs in presence of 100 uM H2O2 by luciferase reporter gene assay.

T2 sequence (Q92731 whole entry): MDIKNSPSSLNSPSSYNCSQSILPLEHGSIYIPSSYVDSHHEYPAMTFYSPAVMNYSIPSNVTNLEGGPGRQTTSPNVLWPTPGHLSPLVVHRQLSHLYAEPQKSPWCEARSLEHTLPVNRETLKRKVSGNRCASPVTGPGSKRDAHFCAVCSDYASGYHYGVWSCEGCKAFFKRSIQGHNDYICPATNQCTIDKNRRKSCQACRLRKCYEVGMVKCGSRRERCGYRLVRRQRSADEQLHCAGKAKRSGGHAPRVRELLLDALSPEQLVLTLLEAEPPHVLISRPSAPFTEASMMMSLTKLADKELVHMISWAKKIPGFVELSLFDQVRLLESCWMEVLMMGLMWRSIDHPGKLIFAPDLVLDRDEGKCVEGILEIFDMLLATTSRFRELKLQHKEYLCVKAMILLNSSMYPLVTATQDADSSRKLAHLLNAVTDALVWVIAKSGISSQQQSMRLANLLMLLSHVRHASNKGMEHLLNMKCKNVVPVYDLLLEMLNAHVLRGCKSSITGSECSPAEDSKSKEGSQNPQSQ

Consider `CC1(C)OB(c2ccc(CC(C#N)c3ccc(O)cc3)cc2)OC1(C)C` (centres undefined), for which the Ratio in data set [1] came out at 4.5; at Estrogen receptor beta [2], 5. Further, the Drug metabolism result in data set [3] is “Metabolite not detected”; in data set [4], “Metabolite detected”; in [7], “Metabolite detected”; in data set [8], “Metabolite not detected”; in data set [9], “Metabolite not detected”; in data set [10], “Metabolite not detected”. Besides, the Drug metabolism in data set [11] was 22%; in [12], 50 to 80%. Further, the K in data set [5] worked out at 6.46 M⁻¹ s⁻¹. The same compound came in with a Retention_time in data set [6] of 22 min.

Turning to `CC1(C)OB(c2ccc(C(C#N)Cc3ccc(O)cc3)cc2)OC1(C)C` (centres undefined), the Ratio in [1] is 6; on Estrogen receptor beta [2], 5. Further, the Drug metabolism entry in [3] was “Metabolite not detected”; in [4] it was “Metabolite detected”; in data set [7] it was “Metabolite detected”; in data set [8], “Metabolite not detected”; in [9], “Metabolite not detected”; in data set [10] it was “Metabolite not detected”. Moreover, the Drug metabolism was 22% in [11] and 50 to 80% in data set [12]. For the same compound, in data set [5], the K amounted to 5.92 M⁻¹ s⁻¹. Further, in data set [6], the Retention_time turned out to be 23 min.

As for `CC1(C)OB(c2ccc3c(c2)CC[C@@H]2[C@@H]3CC[C@]3(C)C(=O)CC[C@@H]23)OC1(C)C`, the Ratio (in [13]; on Estrogen receptor beta [14]) was 6 each time. In addition, the K in data set [15] stood at 4.81 M⁻¹ s⁻¹. The Drug metabolism entry in data set [3] was “Metabolite not detected”.

For `N#CC(Cc1ccc(O)cc1)c1ccc(O)cc1` (centres undefined) [DIARYLPROPIONITRILE], the Retention_time in [6] came to 19 min.

With `CC1(C)OB(c2ccc3c(c2)CC[C@@H]2[C@@H]3CC[C@]3(C)[C@@H](O)CC[C@@H]23)OC1(C)C`, the K in [16] turned out to be 5.57 M⁻¹ s⁻¹. In addition, the Drug metabolism entry in data set [17] is recorded as “Metabolite detected”; in data set [3], “Metabolite not detected”. The Retention_time in data set [18] was determined as 12.5 min. In addition, the Ratio (in [19]; at Estrogen receptor beta [20]) was 3 throughout.

As for `CC1(C)OB(c2ccc(CC(C#N)c3ccc(B4OC(C)(C)C(C)(C)O4)cc3)cc2)OC1(C)C` (centres undefined), at Estrogen receptor beta [2], the Ratio is 20. Further, the Drug metabolism entry in [3] is listed as “Metabolite not detected”; in data set [4], “Metabolite detected”; in data set [7] it was “Metabolite detected”; in [8], “Metabolite not detected”; in data set [9], “Metabolite not detected”; in data set [10], “Metabolite not detected”. Besides, the figures for the Drug metabolism in [11] and in [12] were 22% and 50 to 80%, respectively. The K in data set [5] was 5.14 M⁻¹ s⁻¹. In [6], this compound yielded a Retention_time of 28 min. Besides, the EC50 (in general, the midpoint of the concentration-response curve) was determined as 470 nM at Estrogen receptor beta [21], 6.1 nM at Estrogen receptor beta [22] and 1.2 nM on Estrogen receptor beta [23].
